Results taken from patent US20240251788A1, “HERBICIDE/SAFENER COMBINATION BASED ON SAFENERS FROM THE CLASS OF SUBSTITUTED [(1,5-DIPHENYL-1H-1,2,4-TRIAZOL-3-YL)OXY]ACETIC ACIDS AND THEIR SALTS” (Bayer Aktiengesellschaft, priority 2021, published 2024).

How the values were obtained:
[1] = system: summer wheat crop plant (TRZAS; cv. Triso); assay: Reduction in herbicide damage to summer wheat by safener, greenhouse post-emergence application, visual scoring; type: in vivo; set-up: key to Reduction in the damage by safener (difference): difference in % visual damage (0-100% scale vs untreated) due to safener
Description: (§1) The seeds of the crop plants to be treated are laid out in soil in woodfiber pots (diameter ˜ 7 cm), covered with soil and grown in a greenhouse under good conditions for germination and growth. The trial plants were treated at the early leaf stage (BBCH10-BBCH12).
The herbicides used (component B) were used in the following formulations: • B2.81: WP • B2.85: WP • B2.92: WP • Cinmethylin: EC • Clomazone: WP • Ethofumesate: WP • Flufenacet: SC • Pinoxaden: WP • Saflufenacil: WP • Bicyclopyrone: WP • Picloram: WP • Metazachlor: SC • Flumioxazin: WP • Glyphosate potassium salt: SL • Topramezone: WP
(§2) The dose of the respective herbicides was chosen here such that it causes an average degree of visually apparent damage (min. 20%, max. 75%) compared to untreated crop plants at the evaluation time on a control group of crop plants without safener treatment that were included in the same trial.
(§3) In the respective herbicide/safener combinations, the safeners (component A) in the form of wettable powders (WP) were added in the dose specified; in these cases, herbicide and safener are thus applied as a mixture.
(§4) Application was effected in each case on to the above-ground parts of the plant, at a water application rate corresponding to 300 l/ha and with addition of wetting agent (Mero, 1.5 l/h a).
In the applications that contained pinoxaden, bicyclopyrone or topramezone, the herbicidal effect was enhanced by additionally adding ammonium sulfate (2 kg/ha).
(§5) After application, the plants were cultivated under good growth conditions in a greenhouse. On account of the different mechanisms of action of the herbicides used, the damaging effect of the herbicides was fully manifested at different times depending on the herbicide, and this in turn forms the basis for assessment of the safener action in the mixtures. Therefore, the damage was scored visually, depending on the herbicide/mixture, between 11 and 21 days after application.
(§6) The damage effect was assessed visually on a scale of 0-100% by comparison with untreated control plants, and averaged over 2 repeats per treatment.

[2] = system: summer barley crop plant (HORVS: cv. Quench); assay: Reduction in herbicide damage to summer barley by safener, greenhouse post-emergence application, visual scoring; type: in vivo; set-up: key to Reduction in the damage by safener (difference): difference in % visual damage, 0-100% scale vs untreated plants
Description: as §1
The herbicides used (component B) were used in the following formulations: • B2.81: WP • B2.85: WP • B2.92: WP • Clomazone: WP • Ethofumesate: WP • Flufenacet: SC • Fluroxypyr: EC • Saflufenacil: WP • Thiencarbazone-methyl: WP • Iodosulfuron-methyl-sodium: WP • Bifenox: WP • Glyphosate potassium salt: SL • Topramezone: WP
as §2, §3, §4
In the applications that contained pinoxaden or topramezone, the herbicidal effect was enhanced by additionally adding ammonium sulfate (2 kg/ha).
as §5, §6

[3] = summer wheat (TRZAS), herbicide B1.8 (pinoxaden) 200 g a.i./ha + safener 100 g a.i./ha
[4] = summer wheat (TRZAS), herbicide B2.81 15 g a.i./ha + safener 100 g a.i./ha
[5] = summer wheat (TRZAS), herbicide B2.85 5 g a.i./ha + safener 100 g a.i./ha
[6] = summer wheat (TRZAS), herbicide B2.92 5 g a.i./ha + safener 100 g a.i./ha
[7] = summer wheat (TRZAS), herbicide B5.14 (clomazone) 200 g a.i./ha + safener 100 g a.i./ha
[8] = summer wheat (TRZAS), herbicide B5.21 (ethofumesate) 2000 g a.i./ha + safener 100 g a.i./ha
[9] = summer wheat (TRZAS), herbicide B9.10 (saflufenacil) 10 g a.i./ha + safener 100 g a.i./ha
[10] = summer wheat (TRZAS), herbicide B9.10 (saflufenacil) 20 g a.i./ha + safener 100 g a.i./ha
[11] = summer barley (HORVS), herbicide B2.68 (thiencarbazone-methyl) 30 g a.i./ha + safener 100 g a.i./ha
[12] = summer barley (HORVS), herbicide B2.81 15 g a.i./ha + safener 100 g a.i./ha
[13] = summer barley (HORVS), herbicide B2.85 5 g a.i./ha + safener 100 g a.i./ha
[14] = summer barley (HORVS), herbicide B2.92 5 g a.i./ha + safener 100 g a.i./ha
[15] = summer barley (HORVS), herbicide B5.14 (clomazone) 200 g a.i./ha + safener 100 g a.i./ha
[16] = summer barley (HORVS), herbicide B5.21 (ethofumesate) 2000 g a.i./ha + safener 100 g a.i./ha
[17] = summer barley (HORVS), herbicide B6.4 (fluroxypyr) 500 g a.i./ha + safener 100 g a.i./ha
[18] = summer barley (HORVS), herbicide B9.10 (saflufenacil) 20 g a.i./ha + safener 100 g a.i./ha
[19] = summer wheat (TRZAS), herbicide dose 400 g a.i./ha, without safener

Cc1ccccc1CO[C@@H]1C[C@@]2(C(C)C)CC[C@]1(C)O2 (racemic) [Compound B5.13, cinmethylin, reference compound]
Damage to the plant by the herbicide (in %) ([1]; summer wheat (TRZAS), herbicide dose 500 g a.i./ha, without safener): 25%
Damage to the plant by the herbicide (in %) ([1]; summer wheat (TRZAS), herbicide dose 1000 g a.i./ha, without safener): 25%

C=C[C@]1(C(=O)N[C@H]2CO[C@@H](C(=O)OC)C2)CC(c2cc(F)cc(F)c2)=NO1 (relative stereo) [Compound B2.81, methyl (2R*,4R*)-4-[[(5S)-3-(3,5-difluorophenyl)-5-vinyl-4H-isoxazole-5-carbonyl]amino]tetrahydrofuran-2-carboxylate]
Damage to the plant by the herbicide (in %) ([1]; in vivo): 70%
Damage to the plant by the herbicide (in %) ([2]; in vivo): 70%

COC(=O)COc1nc(-c2ccc(Cl)cc2F)n(-c2ccc(Cl)cc2F)n1 [Compound A1, methyl {[1,5-bis(4-chloro-2-fluorophenyl)-1H-1,2,4-triazol-3-yl]oxy}acetate]
Reduction in the damage by safener (difference) [1, 3]: 25
Reduction in the damage by safener (in %) [1, 3]: 71%
Reduction in the damage by safener (difference) [1, 4]: 70
Reduction in the damage by safener (in %) [1, 4]: 100%
Reduction in the damage by safener (difference) [1, 5]: 60
Reduction in the damage by safener (in %) [1, 5]: 100%
Reduction in the damage by safener (difference) [1, 6]: 60
Reduction in the damage by safener (in %) [1, 6]: 100%
Reduction in the damage by safener (difference) [1, 7]: 20
Reduction in the damage by safener (in %) [1, 7]: 50%
Reduction in the damage by safener (difference) [1, 8]: 70
Reduction in the damage by safener (in %) [1, 8]: 100%
Reduction in the damage by safener (difference) [1, 9]: 15
Reduction in the damage by safener (in %) [1, 9]: 43%
Reduction in the damage by safener (difference) [1, 10]: 15
Reduction in the damage by safener (in %) [1, 10]: 38%
Reduction in the damage by safener (difference) [2, 11]: 30
Reduction in the damage by safener (in %) [2, 11]: 100%
Reduction in the damage by safener (difference) [2, 12]: 70
Reduction in the damage by safener (in %) [2, 12]: 100%
Reduction in the damage by safener (difference) [2, 13]: 50
Reduction in the damage by safener (in %) [2, 13]: 83%
Reduction in the damage by safener (difference) [2, 14]: 65
Reduction in the damage by safener (in %) [2, 14]: 100%
Reduction in the damage by safener (difference) [2, 15]: 30
Reduction in the damage by safener (in %) [2, 15]: 75%
Reduction in the damage by safener (difference) [2, 16]: 60
Reduction in the damage by safener (in %) [2, 16]: 100%
Reduction in the damage by safener (difference) [2, 17]: 20
Reduction in the damage by safener (in %) [2, 17]: 100%
Reduction in the damage by safener (difference) [2, 18]: 20
Reduction in the damage by safener (in %) [2, 18]: 50%

CCc1cc(C)cc(CC)c1-c1c(OC(=O)C(C)(C)C)n2n(c1=O)CCOCC2 [Compound B1.8, pinoxaden, reference compound]
Damage to the plant by the herbicide (in %) ([1]; summer wheat (TRZAS), herbicide dose 200 g a.i./ha, without safener): 35%

COc1nc(C)nc(NC(=O)NS(=O)(=O)c2cc(I)ccc2C(=O)O)n1 [Compound B2.34, iodosulfuron, reference compound]
Damage to the plant by the herbicide (in %) ([2]; in vivo): 45%

Cc1cccc(C)c1N(Cn1cccn1)C(=O)CCl [Compound B2.38, metazachlor, reference compound]
Damage to the plant by the herbicide (in %) ([1]; summer wheat (TRZAS), herbicide dose 4000 g a.i./ha, without safener): 40%

COc1nn(C(=O)NS(=O)(=O)c2c(C(=O)O)csc2C)c(=O)n1C [Compound B2.68, thiencarbazone, reference compound]
Damage to the plant by the herbicide (in %) ([2]; summer barley (HORVS), herbicide dose 30 g a.i./ha, without safener): 30%

C#CCN1C(=O)COc2cc(F)c(N3C(=O)C4=C(CCCC4)C3=O)cc21 [Compound B5.26, flumioxazin, reference compound]
Damage to the plant by the herbicide (in %) ([1]; summer wheat (TRZAS), herbicide dose 20 g a.i./ha, without safener): 60%

Nc1c(Cl)c(F)nc(OCC(=O)O)c1Cl [Compound B6.4, fluroxypyr, reference compound]
Damage to the plant by the herbicide (in %) ([2]; in vivo): 20%

Nc1c(Cl)c(Cl)nc(C(=O)O)c1Cl [Compound B6.5, picloram, reference compound]
Damage to the plant by the herbicide (in %) [1, 19]: 25%

COC(=O)c1cc(Oc2ccc(Cl)cc2Cl)ccc1[N+](=O)[O-] [Compound B8.6, bifenox, reference compound]
Damage to the plant by the herbicide (in %) ([2]; summer barley (HORVS), herbicide dose 600 g a.i./ha, without safener): 40%

bicyclopyrone [Compound B1.2, reference compound]
Damage to the plant by the herbicide (in %) [1, 19]: 60%
